Several values for one entry are separate records, joined by “and”; a condition that tells them apart may be missing. Identical values can stand only once. Like-named read-outs stand apart in the source and are kept apart here.
Assays:
cardiomyocytes = conditions: cited from earlier work
LDL = conditions: 5-50 μM; oxidation by copper ions, monocytes, or endothelial cells; cited from earlier work
[1] = system: superoxide dismutase (SOD); assay: SOD activity in cell lysate (epinephrine auto-oxidation); assay type: cell-based, bovine
Experimental: (§1) Cells pretreated with different concentrations of E2 for 24 hours were harvested in a solution containing 50 mM Tris-HCl (pH 7.4), 1 mM EDTA, 2 μg/ml pepstatin A, 10 μg/ml benzamidine, and 10 μg/ml trypsin inhibitor. The cells were then lysed on ice by sonication at a setting of 50 mW, with 3×15 set cycles using a Cole-Parmer Ultrasonic Homogenizer (Chicago, Ill.). Protein concentrations in the samples were determined by the Bradford method with bovine serum albumin as a standard (Bradford, Anal. Biochem. 72:248-254, 1976).
(§2) SOD activity was determined by a method based on the ability of SOD to suppress epinephrine auto-oxidation (Misra and Fridovich, J.Biol. Chem. 247:3170-3175, 1972). One unit of SOD activity is defined as the amount of protein that inhibits the oxidation of epinephrine by 50%. Briefly, 100 μl of 10×-diluted cell homogenate (about 10 μg protein) was added to 900 μl of carbonate buffer (0.1 M NaHCO3, 0.1 M Na2CO3, 0.1 mM EDTA, pH 10.2) containing 0.7 mM of epinephrine. The absorbency of the mixture was measured for 4 minutes at 480 nm using a Hitachi U-2000 spectrophotometer (Hitachi, San Jose, Calif.).

[2] = system: antioxidant enzymes (SOD, CAT, GPX, GR) in bAECs; assay: Antioxidant enzyme (AOE) activities in cell lysates, all four enzymes together; assay type: cell-based, bovine
Experimental: […] The cells were then lysed on ice by sonication at a setting of 50 mW, with 3×15 set cycles using a Cole-Parmer Ultrasonic Homogenizer (Chicago, Ill.). Protein concentrations in the samples were determined by the Bradford method with bovine serum albumin as a standard (Bradford, Anal. Biochem. 72:248-254, 1976).
as §2
CAT activity was determined by the method of Aebi (Methods Enzymol. 105:121,-126, 1984). One unit of CAT activity is defined as the amount of protein that degrades 1 μmole of H2O2 per minute. Initially, 10 μl of absolute ethanol was mixed with 100 μl of cell homogenates and pre-incubated at 4° C. for 30 minutes. Following the addition of 10 μl Triton X-100 (reduced form), a 100 μl aliquot (about 100 μg of protein) of the resultant mixture was next added to 500 μl of hydrogen peroxide (66 mM) and 400 μl of phosphate buffer (0.1 M NaH2PO4, 0.1 M Na2HPO4, 0.1 mM EDTA, pH 7.0). The absorbency of the mixture was monitored for one minute at 240 nm spectrophotometrically. The molar extinction coefficient of 43.6 M/cm was used to determine the catalase activity.
GPX activity was determined by a modified method of Flohe and Gunzler (Methods Enzymol. 105:114-121, 1984). One unit of GPX activity is defined as the amount of protein that oxidizes 1 nmole of β-NADPH per minute. In this assay, 100 μl of cell homogenate (about 100 μg protein) was added to 800 μl of phosphate buffer (0.1 M NaH2PO4, 0.1 M Na2HPO4, 0.1 mM EDTA, pH 7.0) containing 12.5 mM glutathione (reduced form, GSH), 0.2 mM β-nicotinamide adenine dinucleotide phosphate (reduced form, β-NADPH), and 0.34 U glutathione reductase. This mixture was pre-incubated at 37 C for 10 minutes and then 100 μl of 12 mM t-butyl hydroperoxide was added. The absorbency of the mixture was determined at 340 nm for 3 minutes. The molar extinction coefficient of 6.22 mM/cm was used to determine the activity of GPX.
(§3) GR activity was determined by a modified method of Carlberg and Mannervik (Methods Enzymol. 11 3:484-490, 1985). One unit of GR activity is defined as the amount of protein that oxidizes 1 nmole of β-NADPH per minute. Briefly, 50 μl of 2 mM β-NADPH in 10 mM Tris buffer (pH 7.0) was added to a cuvette containing 50 μl of 20 mM glutathione (oxidized ofrm, GSSG) in phosphate buffer (0.1 M NaH2PO4, 0.1 M Na2HPO4, 0.1 mM EDTA, pH 7.0) and 800 μl of phosphate buffer. Following the addition of cell homogenate (about 100 μg protein/100 μl) the final mixture was measured at 340 nm for 3 minutes. The molar extinction coefficient of 6.22 mM/cm was used to determine the activity of […].

female and male bAECs = assay type: cell-based, bovine; conditions: for mean DCFH fluorescence: separate set of donors, 45-minute paraquat exposure
Experimental: For flow cytometric analysis (after E2 treatment), female and male bAECs were trypsinized, rinsed, and resuspended in PBS containing 2% BSA at a density of 5×10^5 cells/ml. The cells were loaded with dichlorofluorescin diacetate (Molecular Probes, Eugene, Oreg.) (dissolved in DMSO) at 5 μg/ml for 15 minutes followed by paraquat insult (1 mM) at room temperature in the dark. At the designated times, aliquots were withdrawn, placed on ice, and the fluorescence of oxidized DCFH was analyzed by a FACSCalibur™ flow cytometer (Becton-Dickinson, San Jose, Calif.) equipped with an argon laser. A collection filter for the green emission of oxidized DCFH (530/30 nm) was used. Fluorescence signal was collected in log mode and analyzed using Cellquest™ software (Becton-Dickinson).
SOD can dismutate the superoxide radical to hydrogen peroxide, which is subsequently detoxified by CAT or GPX. […] This theory was tested by comparing the level of ROS in female and male bAECs during subsequent oxidant exposure. Following E2 treatment for 24 hours, cells were loaded with dichlorofluorescein diacetate, which penetrates their plasma membranes and is converted to 2′,7′-dichlorofluorescein (DCFH) by intracellular esterases. This nonfluorescent compound, once oxidized by ROS such as hydrogen peroxide, turns to a highly fluorescent derivative.

[3] = system: glutathione reductase (GR); assay: GR activity in cell lysate (NADPH oxidation); assay type: cell-based, bovine
Experimental: as §1, §3

[4] = system: endothelial nitric oxide synthase; conditions: cited from earlier work
[5] = 1 nM E2 pretreatment (Example 8)
[6] = female bAECs, 24 h 1 nM E2 (Example 12)

C[C@]12CC[C@@H]3c4ccc(O)cc4CC[C@H]3[C@@H]1CC[C@@H]2O [E2, 17β-estradiol]
effect on high K+-induced Ca++ loading or hypercontracture (cardiomyocytes): prevent high K+-induced intracellular Ca++ loading or hypercontracture | effect on LDL oxidation (LDL): inhibit LDL oxidation | SOD activity elevation relative to untreated cells [1, 5]: approximately 4 fold | SOD activity increase [1, 6]: about 4 fold | AOE activities after brief incubation ([2]; 1 nM E2, 30 minutes): did not affect the activities of AOEs | activities of the four antioxidant enzymes ([2]; 1 nM-10 μM E2, 24 h): significant increases in the activities of all four of the enzymes tested | E2 concentration of optimal AOE induction ([2]; 24 h pretreatment): 1 to 10 nM | AOE activities ([2]; female bAECs, 24 hour, 1 nM E2): significant elevation of all of the four AOE activities tested | AOE activities ([2]; male bAECs incubated with 1 nM E2): not induced | mean fluorescence intensity of oxidized DCFH (female and male bAECs): 795 and 1323 | basal level of DCFH oxidation, female vs male (female and male bAECs; E2-pretreated cells, before paraquat): similar | mean DCFH fluorescence (female and male bAECs; female bAECs): 1002 | mean DCFH fluorescence (female and male bAECs; male bAECs): 1581 | GR activity elevation relative to untreated cells [3, 5]: ~3 fold | GR activity increase [3, 6]: ~2 fold | optimal concentration of E2 for endothelial nitric oxide synthase induction [4]: 1 to 10 nM

From US20020164581A1 (priority 2001, published 2002)
